Assay results published in PMC10529643, “Discovery of ACE Inhibitory Peptides Derived from Green Coffee Using In Silico and In Vitro Methods” (Foods, 2023).
Read-outs that look alike come from different tables or passages of the source. Ends that are not written are not given here.

Tests used:
[1] = tested on: Angiotensin converting enzyme (ACE); experiment: In vitro ACE inhibitory activity assay with FAPGG substrate; assay type: biochemical; conditions: captopril at 0.1 μM, 37 °C, 30 min, absorbance 340 nm
Method: The peptides predicted with potential antihypertensive capacity were synthesized by GenScript. The ACE inhibitory capacity of hydrolysates and selected peptides were measured as previously described with minor modifications; 400 μL of samples (hydrolysates, synthesized peptides dissolved in the HEPES-NaCl buffer at a concentration of 1.25 mg/mL, 125 μM separately) were mixed with 100 μL of ACE (0.2 U/mL). After incubation of the mixture at 37 °C for 10 min, 500 μL of FAPGG was added and the absorbance value at 340 nm was detected instantly by a FlexStation 3 and recorded as A0 min. After being kept at 37 °C for 30 min, the absorbance value at 340 nm was detected again and recorded: ACE inhibitory rate%=∆Acontrol−∆Asample/∆Acontrol×100% where A0 min is the initial absorbance at 340 nm; A30 min is the absorbance at 340 nm after keeping at 37 °C for 30 min, and ΔA is the reduction in the absorbance: A0 min–A30 min.

pepsin-pancreatin = experiment: In vitro gastrointestinal digestion simulation, pepsin then pancreatin, MS analysis; assay type: in vitro ADME; conditions: pepsin pH 2.0, 37 °C, 2 h then pancreatin 1% E/S w/w, pH 7.5, 37 °C, Q-TOF MS read-out
Method: (§1) In vitro gastrointestinal digestion simulation was performed according to the method described by Fan et al. with minor modifications. Two peptides (CP2, CP3) were dissolved in ultrapure water at 1.0 mg/mL, respectively. The solutions were adjusted to pH 2.0 with […]. Then, pepsin (1% E/S, w/w) was added to peptide solutions and the mixtures were incubated at 37 °C for 2 h. Half of the two digests were terminated in digestion by increasing the temperature to 90 °C. After the other half were adjusted to pH 7.5 with […], pancreatin (1% E/S, w/w) was added and the systems were digested at 37 °C for 2 h. The reactions were then stopped by boiling for 10 min. Subsequently, solvents were centrifuged at 10,000 rpm for 10 min. The supernatants were lyophilized to collect and analyzed using Agilent 6545 series Q-TOF mass spectrometer (Agilent, Waldbronn, Germany). The ACE inhibitory activity of the digested peptide solutions was determined under the same conditions.

pepsin = experiment: In vitro gastrointestinal digestion simulation, pepsin step, MS analysis; assay type: in vitro ADME; conditions: 1.0 mg/mL peptide, pepsin 1% E/S w/w, pH 2.0, 37 °C, 2 h; Q-TOF MS read-out
Method: as §1

ACE = conditions: cited from earlier work

C[C@H](CS)C(=O)N1CCC[C@H]1C(=O)O [Captopril, captopril]
ACE inhibition (%) [1]: 97.5%

IIPNEVY [CP2]
stability against successive pepsin and pancreatin digestion (pepsin-pancreatin): new peptide sequences were detected | stability against pepsin digestion (pepsin): well resistant in gastric digestion

ITPPVMLPP [CP3]
stability against successive pepsin and pancreatin digestion (pepsin-pancreatin): Great changes in the MS analysis | stability against pepsin digestion (pepsin): Only a small amount of CP3 was degraded

QAGLSPVR
ACE inhibition pattern (ACE; from tilapia skin gelatin): noncompetitive

QLDL
ACE inhibition pattern (ACE; from the mycelia of Ganoderma Lucidum): noncompetitive

VFDGVLRPGQ
ACE inhibition pattern (ACE; from rice bran protein): noncompetitive

VGLPPNSR
ACE inhibition pattern (ACE; from tilapia skin gelatin): noncompetitive
